Experiment: gradient 5% acetonitrile 3 min, to 50% in 2 min, to 85% in 15 min, held 3 min, 100 µL/min
Conditions: column: Zorbax Extend-C18 2.1 x 50 mm; eluents: water / acetonitrile, 0.1% formic acid
Procedure, shortened: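 Pure standards were run in mixtures of ~100 molecules by HPLC coupled to a quadrupole time-of-flight mass spectrometer. The column was a Zorbax Extend-C18 (2.1 × 50 mm, 1.8 μm) at 100 μL/min, with water and acetonitrile each containing 0.1% formic acid, in positive and negative ionization mode. Dead and dwell volumes were 40 μL and 900 μL. Retention time was taken from computationally picked adduct peaks, each manually inspected, with data collected over 3 months.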

| SMILES | RP-LC retention time [s] |
| --- | --- |
| Cc1ccc(CNC(=O)CCc2conc2-c2ccccc2)o1 | 865 |
| O=C1COc2ccccc2N1Cc1nc(-c2ccc(OC(F)(F)F)cc2)no1 | 1100 |
| Cc1nn(C(C)C)c(C)c1S(=O)(=O)N1CCN(C(=O)CCc2c[nH]c3ccccc23)CC1 | 829 |
| CCN1C(=O)c2cccnc2Sc2cc(NC(=O)c3cccs3)ccc21 | 796 |
| O=C(NCCCN1CCOCC1)c1ccc2c(c1)NC(=O)C1CCCCN21 (stereo not given) | 582 |
| Cn1cnc(S(=O)(=O)N2CC(Oc3ccccc3-c3nc(-c4ccccc4)no3)C2)c1 | 915 |
| O=C(C1CCOC1)N1CCC2(CC1)NCCc1c2[nH]c2ccccc12 (stereo not given) | 608 |
| Cc1ccc(C)c(S(=O)(=O)NCCn2c(C)cnc2C2CCC2)c1 | 656 |
| CC(C)Cn1c(-c2ccc(N(C)C)cc2)nc2ccccc21 | 748 |
| Cc1ncc2c(n1)CCCN(CC(=O)NCC1CC1)C2=O | 582 |
| CC(=O)Nc1c(C)nn(-c2ccccc2)c1N1CCC(C(=O)Nc2cccc(C(C)=O)c2)CC1 | 709 |
| O=C(NC1CCN(c2cc(-c3cccs3)[nH]n2)C1)c1cccnc1 (stereo not given) | 618 |
| CC(CCc1ccccc1)NC(=O)CN1CCCN(Cc2ccccc2Cl)S1(=O)=O (stereo not given) | 1070 |
| CCOc1cccc(CN2C[C@@H]3C(=O)N(CCN4CCc5ccccc5C4)C(=O)[C@@H]3C2)c1 | 622 |
| O=c1ccc(-c2cccc(Cl)c2)nn1CCc1nc(-c2cccnc2)no1 | 805 |
| O=C(C1CCN(c2nc(-c3ccc(Cl)cc3)no2)CC1)N1CCC(N2CCCCC2)CC1 | 701 |
| C=CCSc1n[nH]c(-c2cccs2)n1 | 792 |
| COC(=O)[C@H](Cc1c[nH]c2ccccc12)NC(=O)c1cccc(-n2cnnn2)c1 | 753 |
| O=C(NCc1cccnc1)C1CCN(Cc2cc3ccccc3n2Cc2ccccc2)CC1 | 624 |
| O=C(NC1CCN(c2ccc(F)cc2)C1=O)c1ccc(F)c(Cl)c1 (stereo not given) | 877 |

| SMILES | RP-LC retention time [s] |
| --- | --- |
| Cc1nccn1C1CN(S(=O)(=O)c2cccc(F)c2)C1 | 604 |
| O=C(C1CCC1)N1CCc2sc(S(=O)(=O)NCc3ccccc3Cl)cc2C1 | 923 |
| Cc1ccc(C)c(-n2c(-c3ccc(Cl)cc3)cn3c4c(=O)n(C)c(=O)n(C)c4nc23)c1 | 1110 |
| Cc1ccc(C)c(NC(=O)C2CCN(S(C)(=O)=O)c3cc(C)ccc3O2)c1 (stereo not given) | 998 |
| O=C1C2N=NN(Cc3nc(-c4ccc(Cl)cc4)no3)C2C(=O)N1c1ccc2c(c1)CCC2 (stereo not given) | 1160 |
| CC(C)C(=O)Nc1ccc(-n2cnc(C(=O)NC3CCCCC3)c2)nc1 | 765 |
| CCOc1ccc(NC(=O)N2CCC(n3cnnc3C3CC3)C2)cc1 (stereo not given) | 630 |
| CNC(=O)C1(C)CC(c2ccccc2)=NO1 (stereo not given) | 693 |
| Cc1ccccc1-c1nc(C2CC(=O)N(c3ccc(F)c(Cl)c3)C2)no1 (stereo not given) | 1140 |
| CCCCOC(=O)c1ccc(Nc2c(C(=O)N(CC)CC)cnc3nc(C)ccc23)cc1 | 720 |
| O=C(CCCn1c(=O)c2cccn2c2ccccc21)NCCCN1CCC(N2CCCCC2)CC1 | 584 |
| Cn1ccc2ccn(CC(=O)Nc3cccc(Br)c3)c(=O)c21 | 827 |
| O=C(CCC[C@@H]1[C@H]2CCCN3CCC[C@@H](CN1C(=O)c1ccco1)[C@@H]23)Nc1ccccc1 | 614 |
| Cc1ccc2nc3c(c(C(=O)NC(C)C)c2c1)CCCC3 | 618 |
| COC(=O)c1cccc(NC(=O)NCCCn2c(C(F)(F)F)nc3cccnc32)c1 | 773 |
| CCOC(=O)C1CCN(C(=O)CCC(=O)N2CCCn3nc(C)cc32)CC1 | 646 |
| Cc1ccc(-c2noc(-c3ccc(N4CCN(c5ncccn5)CC4)nc3)n2)cc1 | 1280 |
| Cc1cc(C)cc(NC2C=CS(=O)(=O)C2)c1 (stereo not given) | 760 |
| CC(C(=O)N1CCN(C(=O)c2ccco2)CC1)n1c(=O)c(C(F)(F)F)nc2ccccc21 (stereo not given) | 834 |
| O=C(Cn1cnc2nc(N3CCC(C(=O)NC4CC4)CC3)sc2c1=O)NCc1ccco1 | 610 |

| SMILES | RP-LC retention time [s] |
| --- | --- |
| O=S(=O)(NC1CCCCC1)c1ccc(-c2nnc(C3CCC3)o2)o1 | 968 |
| CCn1ncn2cc(S(=O)(=O)Nc3cc(C)ccc3C)cc2c1=O | 937 |
| CCN1C(=O)Cc2ccccc2C1C(=O)NCc1cccc(F)c1 (stereo not given) | 744 |
| CCOC(=O)c1c[nH]c2ccc(NC(C)=O)cc2c1=O | 557 |
| CCCCN1N=C(C(=O)N2CCCCCC2)S(=O)(=O)c2ccc(C)cc21 | 1050 |
| O=C(CCC1CCCC1)Nc1ccc(N2CCN(C3CCCC3)C2=O)nc1 | 884 |
| COc1ccc(CNc2nc3ccncc3n(C(C)C)c2=O)cc1 | 652 |
| Cc1cc(N2CCC(NC(=O)Nc3ccc4c(c3)OCCO4)C2=O)ccc1F (stereo not given) | 774 |
| CCn1ccc2sc(C)c(C(=O)NCc3ccc(F)cc3)c2c1=O | 798 |
| CCN1C(=O)c2ccccc2Oc2ccc(C(=O)NCC(C)c3ccccc3)cc21 (stereo not given) | 985 |
| O=C(Cc1nnc2c(-c3nc(C4CC4)no3)cccn12)NC1CCCCCC1 | 720 |
| O=C1CCCCC(Cc2ccccc2)(C(=O)NC2CCS(=O)(=O)C2)N1 (stereo not given) | 656 |
| O=C(OCC(=O)c1ccc(Cl)cc1Cl)c1ccc2ccccc2n1 | 991 |
| Cc1ccc(C)c(NC(=O)N2CCCC2c2nc(-c3ccc(F)cc3F)no2)c1 (stereo not given) | 1010 |
| Cc1nnc(N2CCCC(C(=O)N3CCCCC3)C2)c2nn(-c3ccccc3)c(C)c12 (stereo not given) | 686 |
| CCOC(=O)CNC(=O)N1CCCC1c1ccc(F)cc1 (stereo not given) | 760 |
| COC(=O)c1c(NCCc2cccs2)c2ccc(F)cc2[nH]c1=O | 766 |
| COCCC1CCN(C(=O)CN(C)C(=O)c2ccsc2)CC1 | 655 |
| CC(C)C(=O)Nc1ccc(C2(C(=O)N3CCN(C(C)C)CC3)CCCCC2)cc1 | 652 |
| Cc1ncnc2c1CCC(=O)N2CC1CCCCC1 | 848 |

Other lines, results leading:

| RP-LC retention time [s] | SMILES |
| --- | --- |
| 772 | COc1ccc(OC)c(S(=O)(=O)Nc2cccn3c(C4CCC4)nnc23)c1 |
| 824 | COc1ccc(CCNC(=O)c2nnc(-c3ccc(S(=O)(=O)N4CCCC4)cc3)o2)cc1OC |
| 1060 | Cc1ccc(-n2nc(N3CCCC(C(=O)NCCC4=CCCCC4)C3)ccc2=O)cc1Cl (stereo not given) |
| 910 | Cc1ccc(NS(=O)(=O)c2ccc3c(c2)C(=O)N(C)c2ncccc2O3)c(F)c1 |
| 1130 | CCOc1ccc(C(=O)n2nc(C)c(S(=O)(=O)N3CCCC3)c2C)cc1 |
| 590 | CCN(CC)CCNC(=O)C1CCCN(c2ccc(-c3ccc(C)cc3)nn2)C1 (stereo not given) |
| 768 | O=C(NC1CCCC1)c1ccc(CN2CCN(Cc3ccc(F)cc3)C(=O)C2=O)cc1 |
| 875 | COC(=O)c1ccccc1Nc1c(-c2ccc(C)cc2)nc2cnccn12 |
| 713 | COc1cc(-c2ccc(C)cc2)nc2ccc(NC(=O)c3ccco3)cc12 |
| 845 | CCOc1ccc(CCNC(=O)Cn2ncc3ccccc32)cc1OCC |
| 1160 | O=C(NCCC1=CCCCC1)c1nnc(-c2ccc(S(=O)(=O)N3CCCCC3)cc2)o1 |
| 1020 | Cc1cccc(N2CCN(S(=O)(=O)c3ccc(-c4nnc(C5CC5)o4)o3)CC2)c1 |
| 774 | Cc1ccc(Cn2nc3c(S(=O)(=O)N4CCOCC4)cccn3c2=O)cc1 |
| 1020 | COc1ccc(NC(=O)c2cc3c(=O)oc4ccccc4c3n2C)cc1Cl |
| 1090 | CCN(CC)S(=O)(=O)c1ccc(Cl)c(-c2nnc(-c3ccc(OC)cc3)o2)c1 |
| 765 | Cn1nc(C(=O)NCc2ccc3c(c2)OCO3)c2c1CCN(C(=O)COc1ccc(F)cc1)C2 |
| 679 | COc1cccc(Nc2cc(C(=O)N3CCSCC3)nc3c(OC)cccc23)c1 |
| 689 | COc1ccc(OC)c(CNC(=O)CN2C(=O)C(C)(C)c3cc(C)ccc32)c1 |
| 1140 | CCc1ccc(NC(=O)c2cc(CC)n3nccc3n2)cc1 |
| 949 | COc1ccc(-c2nnc(Cc3nc(-c4ccccc4)no3)o2)cc1OC |
| 754 | O=C(NCc1ccc2c(c1)OCO2)C1CCN(c2nc3ccccc3o2)CC1 |
| 652 | Cc1ccc(NC(=O)C2CCCN(S(=O)(=O)c3c[nH]c(C(=O)N4CCCCCC4)c3)C2)cc1F (stereo not given) |
| 884 | COc1cc(NS(=O)(=O)c2ccc3c(c2)-c2oncc2CO3)cc(OC)c1 |
| 748 | CCC(C(=O)Nc1ccc(C(C)=O)cc1)n1cnc2nc3c(cc2c1=O)CCCC3 (stereo not given) |
| 693 | COc1ccc(OC)c(CNC(=O)CCc2c(-c3ccc(Br)cc3)nc3ccccn23)c1 |
| 1200 | Cc1ccc(S(=O)(=O)N2CCC(F)(c3nc(CC(C)C)no3)CC2)cc1F |
| 1360 | Fc1ccc(-c2noc(-c3ccc(N4CCCCC4)nc3)n2)cc1 |
| 615 | COc1ccc(C(=O)N2CCC(c3cc(N)on3)CC2)cc1OC |
| 656 | COc1ccc(CCNC[C@H](O)c2ccc(O)cc2)cc1OC |
| 927 | COc1cccc2sc(N(Cc3ccco3)C(=O)c3cc(C)nn3C)nc12 |
